Assay results as given in ChEMBL document CHEMBL1201862, “PubChem BioAssay data set” (2004).
Active and inactive are the calls of the source.

Legend:
[1] = target: T1, Low molecular weight phosphotyrosine protein phosphatase (Homo sapiens, UniProt P24666); type: functional; conditions: read-out: IC50_Mean;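 note: Dose-response confirmation assay measuring inhibition of LMPTP enzyme activity by fluorescence intensity read-out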
T1 sequence (P24666 whole entry): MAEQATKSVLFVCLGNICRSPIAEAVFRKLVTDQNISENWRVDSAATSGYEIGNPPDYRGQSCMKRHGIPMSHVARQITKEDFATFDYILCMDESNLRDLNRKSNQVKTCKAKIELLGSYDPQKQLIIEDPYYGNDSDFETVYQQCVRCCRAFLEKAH

[2] = Luminescence Cell-Based Dose Retest to Confirm Inhibitors of Cancer Stem Cells. [Related pubchem assays (depositor defined):AID2717, AID2721]; type: functional; conditions: Homo sapiens
[3] = target: Prothrombin (Homo sapiens, UniProt P00734); assay: Thrombin 1536 HTS Dose Response Confirmation. [Related pubchem assays: 1046 (Thrombin 1536 HTS; hits were confirmed in this assay)]; type: functional
[4] = target: T2, fMet-Leu-Phe receptor (Homo sapiens, UniProt P21462); assay: FPR ligands, dose response (AID 519); type: functional
T2 sequence (P21462 whole entry): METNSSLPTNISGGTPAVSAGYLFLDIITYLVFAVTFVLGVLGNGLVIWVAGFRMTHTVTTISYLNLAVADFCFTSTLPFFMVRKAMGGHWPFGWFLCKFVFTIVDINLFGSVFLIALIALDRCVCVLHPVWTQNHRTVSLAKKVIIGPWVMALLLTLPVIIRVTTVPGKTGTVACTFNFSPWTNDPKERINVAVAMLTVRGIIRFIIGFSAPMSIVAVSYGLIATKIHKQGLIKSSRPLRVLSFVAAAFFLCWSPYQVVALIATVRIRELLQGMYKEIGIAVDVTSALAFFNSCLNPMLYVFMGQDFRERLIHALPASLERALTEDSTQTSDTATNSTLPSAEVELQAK

[5] = target: Cytochrome P450 2D6 (Homo sapiens, UniProt P10635);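 note: CYP2D6 member of a cytochrome P450 panel assay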
[6] = target: T3, Cytochrome P450 1A2 (Homo sapiens, UniProt P05177);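 note: PubChem cytochrome P450 panel assay, CYP1A2 panel member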
T3 sequence (P05177 whole entry): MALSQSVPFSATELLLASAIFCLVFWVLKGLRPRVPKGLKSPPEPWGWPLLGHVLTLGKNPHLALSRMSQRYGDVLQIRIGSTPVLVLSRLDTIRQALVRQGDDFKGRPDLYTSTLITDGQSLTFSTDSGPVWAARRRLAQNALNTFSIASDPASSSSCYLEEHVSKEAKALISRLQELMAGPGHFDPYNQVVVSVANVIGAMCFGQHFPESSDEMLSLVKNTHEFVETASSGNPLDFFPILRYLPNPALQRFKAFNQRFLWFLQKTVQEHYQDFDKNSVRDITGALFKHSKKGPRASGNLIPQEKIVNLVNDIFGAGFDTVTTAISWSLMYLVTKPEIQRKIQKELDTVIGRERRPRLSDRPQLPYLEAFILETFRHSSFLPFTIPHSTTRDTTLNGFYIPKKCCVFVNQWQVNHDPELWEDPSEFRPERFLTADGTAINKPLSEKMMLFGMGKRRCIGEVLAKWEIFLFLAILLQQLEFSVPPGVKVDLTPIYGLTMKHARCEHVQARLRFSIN

[7] = target: Cytochrome P450 2C19 (Homo sapiens, UniProt P33261); assay: Cytochrome panel assay with activity outcomes. Panel member name: p450-cyp2c19 Compounds with AC50 equal or less than 10 uM are considered active; type: functional; conditions: read-out: AC50
[8] = target: Peroxisome proliferator-activated receptor gamma/Nuclear receptor coactivator 3 (Homo sapiens, UniProt P37231); type: functional;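 note: agonist potency for raising coactivator recruitment to the receptor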
[9] = target: Peroxisome proliferator-activated receptor gamma/Nuclear receptor coactivator 1 (Homo sapiens, UniProt P37231); type: functional;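 note: agonist potency as compounds enhance coactivator SRC-1 recruitment to PPARgamma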
[10] = target: Peroxisome proliferator-activated receptor gamma/Nuclear receptor coactivator 2 (Homo sapiens, UniProt P37231); type: functional;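 note: agonist potency for raising coactivator recruitment to the receptor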
[11] = inhibitors of Vif binding to APOBEC3G peptide, primary screen, biochemical, TR-FRET, GST-Vif 1-94, biotin-A3G peptide, dose response retest (AID 1117319); type: functional;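 note: TR-FRET signal of purified GST-Vif binding a biotinylated A3G peptide; inhibitors lower the FRET signal by blocking Vif and A3G binding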
[12] = system: Streptococcus; assay: Group A Streptococcus viability loss, dose response, counter-screen for streptokinase expression inhibitor project, luminescence, BacTiterGlo (AID 1915); type: functional, organism-based;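 note: potency for reduction of bacterial viability or growth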
[13] = target: T4, Streptokinase A (Streptococcus pyogenes serotype M1, UniProt P10520); assay: S. pyogenes streptokinase expression inhibitors, potency, dose response, plasminogen activation absorbance, OD405 (AID 1914); type: functional, Streptococcus pyogenes M1 GAS;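 note: secreted streptokinase activity via plasminogen activation per viability signal from cell pellet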
T4 sequence (P10520 whole entry): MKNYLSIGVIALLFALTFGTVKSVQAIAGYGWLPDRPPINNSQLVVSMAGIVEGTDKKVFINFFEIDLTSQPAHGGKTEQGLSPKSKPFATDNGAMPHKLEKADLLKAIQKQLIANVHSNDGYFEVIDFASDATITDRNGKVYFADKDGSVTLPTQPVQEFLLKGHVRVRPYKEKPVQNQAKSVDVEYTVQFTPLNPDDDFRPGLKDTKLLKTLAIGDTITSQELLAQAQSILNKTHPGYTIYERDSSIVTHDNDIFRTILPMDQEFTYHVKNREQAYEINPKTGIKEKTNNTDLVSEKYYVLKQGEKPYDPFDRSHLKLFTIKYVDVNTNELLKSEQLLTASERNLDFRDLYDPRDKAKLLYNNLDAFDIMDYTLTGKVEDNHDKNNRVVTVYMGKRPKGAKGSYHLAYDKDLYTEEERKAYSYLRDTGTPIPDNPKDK

[14] = system: Streptococcus sp. 'group A'; assay: growth inhibition of control SK(-) GAS strain, dose response, counter-screen for streptokinase expression inhibitor project, luminescence, kanamycin, BacTiterGlo, confirmation (AID 1900); type: functional, organism-based
[15] = target: Mitogen-activated protein kinase 10 (Homo sapiens, UniProt P53779); assay: Dose response biochemical screening assay for inhibitors of c-Jun N-Terminal Kinase 3 (JNK3). [Related pubchem assays: 746 ]
[16] = target: T5, Protein skinhead-1 (Caenorhabditis elegans, UniProt P34707); type: functional
T5 sequence (P34707 whole entry): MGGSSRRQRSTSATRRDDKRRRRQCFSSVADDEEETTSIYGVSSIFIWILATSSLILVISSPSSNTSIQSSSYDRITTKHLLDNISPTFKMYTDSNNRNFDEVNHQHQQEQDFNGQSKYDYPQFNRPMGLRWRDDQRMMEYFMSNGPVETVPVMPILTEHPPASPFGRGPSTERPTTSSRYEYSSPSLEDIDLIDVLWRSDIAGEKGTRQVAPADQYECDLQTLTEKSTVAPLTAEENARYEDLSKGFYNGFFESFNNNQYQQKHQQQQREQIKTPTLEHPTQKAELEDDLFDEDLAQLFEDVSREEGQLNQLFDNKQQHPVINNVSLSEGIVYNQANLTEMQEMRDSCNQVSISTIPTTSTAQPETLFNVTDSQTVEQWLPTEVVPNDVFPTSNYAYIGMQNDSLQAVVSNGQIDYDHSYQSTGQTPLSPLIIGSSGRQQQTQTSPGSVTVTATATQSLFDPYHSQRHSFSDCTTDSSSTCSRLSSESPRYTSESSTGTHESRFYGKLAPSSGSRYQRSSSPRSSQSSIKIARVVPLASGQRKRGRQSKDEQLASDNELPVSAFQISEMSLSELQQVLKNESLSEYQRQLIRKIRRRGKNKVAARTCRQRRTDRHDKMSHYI

[17] = target: T6, Corticotropin-releasing factor receptor 2/Corticotropin-releasing factor-binding protein (Homo sapiens, UniProt P24387+Q13324); assay: Dose Response confirmation of uHTS hits for small molecule antagonists of the CRF-binding protein and CRF-R2 receptor complex.; type: functional; conditions: read-out: IC50_Mean
T6 sequence (Q13324 whole entry): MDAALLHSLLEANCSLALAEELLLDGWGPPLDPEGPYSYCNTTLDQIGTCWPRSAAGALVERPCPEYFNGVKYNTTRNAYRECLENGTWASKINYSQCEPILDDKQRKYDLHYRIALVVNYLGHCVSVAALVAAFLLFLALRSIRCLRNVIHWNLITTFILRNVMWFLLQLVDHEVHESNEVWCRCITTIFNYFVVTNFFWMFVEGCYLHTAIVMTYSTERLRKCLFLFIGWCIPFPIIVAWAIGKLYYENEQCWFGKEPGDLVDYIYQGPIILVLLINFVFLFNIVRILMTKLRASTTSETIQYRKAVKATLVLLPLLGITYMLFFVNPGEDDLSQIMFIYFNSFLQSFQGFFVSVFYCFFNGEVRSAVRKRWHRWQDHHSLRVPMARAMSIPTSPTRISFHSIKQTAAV
T6 sequence (P24387 whole entry): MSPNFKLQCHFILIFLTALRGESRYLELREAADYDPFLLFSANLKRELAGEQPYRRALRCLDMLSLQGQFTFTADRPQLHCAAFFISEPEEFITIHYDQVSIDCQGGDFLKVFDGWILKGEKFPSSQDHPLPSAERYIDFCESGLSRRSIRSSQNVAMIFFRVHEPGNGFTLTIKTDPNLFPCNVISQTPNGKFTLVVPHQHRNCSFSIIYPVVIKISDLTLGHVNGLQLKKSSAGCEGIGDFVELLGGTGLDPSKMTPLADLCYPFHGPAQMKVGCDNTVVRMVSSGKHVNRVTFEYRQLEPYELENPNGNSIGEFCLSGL

[18] = target: Nonstructural protein 1 (Influenza A virus, UniProt Q194T2); type: functional, Influenza A virus (A/California/07/2009(H1N1))
[19] = target: T6, Corticotropin-releasing factor receptor 2/Corticotropin-releasing factor-binding protein; assay: activators of CRF receptor 2 with binding protein – uHTS hits, confirmation (AID 602473); type: functional; conditions: read-out: EC50_Mean
[20] = target: Cytochrome P450 2C9 (Homo sapiens, UniProt P11712)
[21] = target: Genome polyprotein (dengue virus type 2, UniProt P29990); assay: Dengue-2 NS5 methyltransferase inhibitors, primary screen, biochemical, confirmation dose response (AID 588689); type: functional
[22] = HepG2 cell cytotoxicity, dose response, cytotoxicity control for Shn3 inhibitor project, CellTiter-Glo, cherry-picked (AID 624134); type: functional, cell-based
[23] = Shn3 3'UTR reporter inhibitors, dose response, cell-based, Clone20 osteoblasts, firefly luciferase, cherry-picked (AID 624132); type: functional;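 note: firefly luciferase luminescence from reporter carrying the Shn3 3'UTR in osteoblasts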
[24] = control 3'UTR Renilla luciferase suppression, dose response, counter-screen for Shn3 inhibitor project, cell-based, Clone20-Shn3RL, cherry-picked (AID 624133); type: functional

Nonstructural protein 1, sequence (Q194T2 whole entry): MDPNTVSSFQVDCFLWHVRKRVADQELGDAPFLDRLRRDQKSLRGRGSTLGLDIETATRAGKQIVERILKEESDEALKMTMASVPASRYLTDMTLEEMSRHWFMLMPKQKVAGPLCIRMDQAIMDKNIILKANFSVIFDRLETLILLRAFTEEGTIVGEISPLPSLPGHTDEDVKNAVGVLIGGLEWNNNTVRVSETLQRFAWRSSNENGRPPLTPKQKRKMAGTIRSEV
Peroxisome proliferator-activated receptor gamma/Nuclear receptor coactivator 2, sequence (P37231 whole entry): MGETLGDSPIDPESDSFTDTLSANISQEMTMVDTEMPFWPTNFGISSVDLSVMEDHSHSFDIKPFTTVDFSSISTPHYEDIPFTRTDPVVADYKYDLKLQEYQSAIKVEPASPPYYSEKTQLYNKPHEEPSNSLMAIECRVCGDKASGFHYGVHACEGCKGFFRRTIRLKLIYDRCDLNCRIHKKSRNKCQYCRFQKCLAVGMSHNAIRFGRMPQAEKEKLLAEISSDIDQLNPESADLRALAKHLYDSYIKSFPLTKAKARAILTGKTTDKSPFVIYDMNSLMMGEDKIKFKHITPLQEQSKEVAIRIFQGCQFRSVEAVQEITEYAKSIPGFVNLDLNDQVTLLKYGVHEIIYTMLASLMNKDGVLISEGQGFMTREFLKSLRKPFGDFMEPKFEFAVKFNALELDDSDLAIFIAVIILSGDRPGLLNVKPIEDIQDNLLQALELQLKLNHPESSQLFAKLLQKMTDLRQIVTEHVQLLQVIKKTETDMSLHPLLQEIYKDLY
Peroxisome proliferator-activated receptor gamma/Nuclear receptor coactivator 2, sequence (Q15596 whole entry, further chain): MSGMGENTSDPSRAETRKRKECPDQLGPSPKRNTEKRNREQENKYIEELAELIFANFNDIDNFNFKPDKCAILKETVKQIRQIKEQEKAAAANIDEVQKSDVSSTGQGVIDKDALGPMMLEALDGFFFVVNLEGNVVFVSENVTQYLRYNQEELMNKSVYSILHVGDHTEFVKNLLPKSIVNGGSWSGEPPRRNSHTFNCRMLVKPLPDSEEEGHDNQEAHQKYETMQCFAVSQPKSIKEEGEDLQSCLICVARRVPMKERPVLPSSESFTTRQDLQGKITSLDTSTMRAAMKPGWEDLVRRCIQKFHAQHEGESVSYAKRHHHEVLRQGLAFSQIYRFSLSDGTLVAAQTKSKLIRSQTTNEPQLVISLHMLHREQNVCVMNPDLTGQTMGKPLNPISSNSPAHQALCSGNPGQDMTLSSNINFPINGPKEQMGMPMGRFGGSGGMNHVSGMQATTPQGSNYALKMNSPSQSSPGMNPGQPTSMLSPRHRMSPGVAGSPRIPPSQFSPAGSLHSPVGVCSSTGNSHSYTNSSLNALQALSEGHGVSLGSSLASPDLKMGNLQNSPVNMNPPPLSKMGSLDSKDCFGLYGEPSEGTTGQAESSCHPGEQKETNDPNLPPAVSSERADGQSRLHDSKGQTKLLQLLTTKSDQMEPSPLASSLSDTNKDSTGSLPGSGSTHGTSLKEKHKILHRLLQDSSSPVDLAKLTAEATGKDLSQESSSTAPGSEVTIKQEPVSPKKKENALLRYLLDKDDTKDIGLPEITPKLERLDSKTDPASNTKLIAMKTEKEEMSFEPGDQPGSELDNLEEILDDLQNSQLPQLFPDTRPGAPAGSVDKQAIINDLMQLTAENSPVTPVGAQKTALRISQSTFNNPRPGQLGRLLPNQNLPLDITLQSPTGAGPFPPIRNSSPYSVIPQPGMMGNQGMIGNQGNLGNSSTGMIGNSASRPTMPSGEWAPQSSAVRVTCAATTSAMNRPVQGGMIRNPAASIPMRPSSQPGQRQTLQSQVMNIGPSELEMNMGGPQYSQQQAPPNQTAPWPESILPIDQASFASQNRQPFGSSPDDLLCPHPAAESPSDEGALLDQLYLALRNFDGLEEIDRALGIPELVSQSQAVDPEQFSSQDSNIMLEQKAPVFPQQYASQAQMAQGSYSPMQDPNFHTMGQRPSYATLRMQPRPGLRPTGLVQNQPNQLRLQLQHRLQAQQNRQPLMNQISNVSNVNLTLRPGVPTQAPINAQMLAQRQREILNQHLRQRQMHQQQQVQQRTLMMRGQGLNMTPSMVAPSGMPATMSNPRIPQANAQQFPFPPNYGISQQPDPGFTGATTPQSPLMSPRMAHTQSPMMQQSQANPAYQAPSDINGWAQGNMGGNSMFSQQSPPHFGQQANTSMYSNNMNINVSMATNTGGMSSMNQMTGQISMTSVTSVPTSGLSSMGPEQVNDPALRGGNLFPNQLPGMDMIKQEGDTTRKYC
Peroxisome proliferator-activated receptor gamma/Nuclear receptor coactivator 3, sequence (P37231 whole entry): as the sequence (P37231 whole entry) above
Peroxisome proliferator-activated receptor gamma/Nuclear receptor coactivator 3, sequence (Q9Y6Q9 whole entry, further chain): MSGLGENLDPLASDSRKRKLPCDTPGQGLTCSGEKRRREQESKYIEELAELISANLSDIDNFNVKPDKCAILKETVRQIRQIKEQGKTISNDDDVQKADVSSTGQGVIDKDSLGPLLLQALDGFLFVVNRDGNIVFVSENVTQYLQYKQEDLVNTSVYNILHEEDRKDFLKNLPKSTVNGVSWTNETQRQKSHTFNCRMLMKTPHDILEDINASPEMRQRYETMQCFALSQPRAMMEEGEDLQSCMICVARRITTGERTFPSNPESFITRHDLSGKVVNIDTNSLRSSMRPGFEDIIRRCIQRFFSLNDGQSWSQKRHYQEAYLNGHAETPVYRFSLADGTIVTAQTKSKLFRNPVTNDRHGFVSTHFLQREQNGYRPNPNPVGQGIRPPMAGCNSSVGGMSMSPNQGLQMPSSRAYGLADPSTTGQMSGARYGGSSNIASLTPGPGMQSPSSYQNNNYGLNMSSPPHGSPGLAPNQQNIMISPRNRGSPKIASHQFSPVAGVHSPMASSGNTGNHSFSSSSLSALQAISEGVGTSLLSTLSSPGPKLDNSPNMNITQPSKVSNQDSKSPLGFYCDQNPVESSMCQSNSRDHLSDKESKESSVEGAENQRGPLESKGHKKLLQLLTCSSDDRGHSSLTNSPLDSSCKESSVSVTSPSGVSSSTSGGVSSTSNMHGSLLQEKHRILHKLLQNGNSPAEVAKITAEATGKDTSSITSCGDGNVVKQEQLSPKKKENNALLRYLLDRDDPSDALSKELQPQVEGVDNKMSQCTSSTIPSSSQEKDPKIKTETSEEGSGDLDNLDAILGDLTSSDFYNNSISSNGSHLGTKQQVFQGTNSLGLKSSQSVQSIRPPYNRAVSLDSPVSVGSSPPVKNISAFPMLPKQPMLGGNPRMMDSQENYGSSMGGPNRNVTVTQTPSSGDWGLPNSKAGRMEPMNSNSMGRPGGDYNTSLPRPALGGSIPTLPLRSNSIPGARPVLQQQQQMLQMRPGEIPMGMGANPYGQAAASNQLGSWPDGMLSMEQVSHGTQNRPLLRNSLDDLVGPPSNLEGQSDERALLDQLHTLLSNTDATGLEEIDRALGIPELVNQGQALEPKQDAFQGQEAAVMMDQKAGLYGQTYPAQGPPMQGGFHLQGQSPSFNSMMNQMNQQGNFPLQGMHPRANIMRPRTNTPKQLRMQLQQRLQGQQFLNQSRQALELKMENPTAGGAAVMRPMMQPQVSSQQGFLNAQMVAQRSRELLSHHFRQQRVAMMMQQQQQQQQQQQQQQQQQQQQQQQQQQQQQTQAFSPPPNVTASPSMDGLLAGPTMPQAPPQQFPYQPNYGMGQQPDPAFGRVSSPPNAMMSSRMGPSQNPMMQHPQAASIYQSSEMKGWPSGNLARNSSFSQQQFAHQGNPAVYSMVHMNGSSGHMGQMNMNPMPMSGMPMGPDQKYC
Mitogen-activated protein kinase 10, sequence (P53779 whole entry): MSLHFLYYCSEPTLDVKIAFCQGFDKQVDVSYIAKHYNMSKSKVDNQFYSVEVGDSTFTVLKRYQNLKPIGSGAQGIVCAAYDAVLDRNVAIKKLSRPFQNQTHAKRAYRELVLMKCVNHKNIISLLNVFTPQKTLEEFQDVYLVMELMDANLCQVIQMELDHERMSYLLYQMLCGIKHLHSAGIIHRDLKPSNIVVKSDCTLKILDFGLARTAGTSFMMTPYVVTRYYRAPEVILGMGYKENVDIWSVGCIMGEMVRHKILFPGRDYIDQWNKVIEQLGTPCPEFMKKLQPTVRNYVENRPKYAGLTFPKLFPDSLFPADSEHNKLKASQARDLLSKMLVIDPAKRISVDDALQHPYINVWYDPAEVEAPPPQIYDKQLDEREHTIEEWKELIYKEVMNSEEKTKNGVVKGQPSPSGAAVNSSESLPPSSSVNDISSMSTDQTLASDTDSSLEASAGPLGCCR

Cc1ccc(-n2nc3c(N4CCC(C(=O)NCc5ccc(C)o5)CC4)nnc(C)c3c2C)cc1
IC50 [1]: 23 µM (inactive)

CC1(C)CN(c2ccccc2)N(C(=O)c2ccc(F)cc2)C1=O
AC50 [2]: 3.63 µM (active) | IC50 [3]: 0.837 µM (active)

CCC(C)(C(=O)NC1CCCC1)N(CC1CCCO1)C(=O)c1ccc2c(c1)OCO2 (stereo not drawn)
Ki [4]: > 66.7 µM (inactive) | AC50 [5]: 35.5 µM (inconclusive) | AC50 [6]: 39.8 µM (inconclusive) | AC50 [7]: 5.62 µM (inconclusive)

COc1ccc(C2(CNC(=O)/C=C\c3ccco3)CCCC2)cc1OC
EC50 [8]: > 79.4 µM (not active) | EC50 [9]: > 79.4 µM (not active) | EC50 [10]: > 79.4 µM (not active)

O=C(CSc1nc(O)c2cnn(-c3ccc(F)cc3)c2n1)N1CCCCCC1
IC50 [3]: > 50 µM (not active)

CN(C)S(=O)(=O)c1ccc(C(=O)OCC(=O)c2ccc3c(c2)NC(=O)CO3)cc1
IC50 [1]: 29.3 µM (inactive)

Oc1c(C(c2ccccc2)N2CCN(Cc3ccccc3)CC2)sc2ncnn12 (stereo not drawn)
IC50 [11]: > 100 µM (active)

Cn1c(CN2CCOCC2)nc2cc(NC(=O)c3ccc(F)cc3)ccc21
IC50 [11]: > 100 µM (active)

COc1cccc2sc(N3CCN(c4nc5ccccc5s4)CC3)nc12
EC50 [8]: 22.9 µM (not active) | EC50 [9]: 13.4 µM (not active) | EC50 [10]: 19.1 µM (not active)

CCn1cc(C(=O)NCc2ccc3c(c2)OCO3)c(=O)c2cc(F)c(N3CCN(C(=O)c4ccco4)CC3)cc21
IC50 [1]: 29.4 µM (inactive) | EC50 [12]: 20.8 µM (active) | EC50 [13]: > 150 µM (not active) | EC50 [14]: 6.52 µM (active)

COc1cc(CN/C(C)=C(\C#N)C(N)=O)cc(OC)c1OC
IC50 [15]: 7.16 µM (active)

COC(=O)c1[nH]c(C)c(C(=O)C2=C(O)C(=O)N(CCCN3CCOCC3)C2c2ccccn2)c1C (stereo not drawn)
Ki [4]: 9.7 µM (active) | IC50 [16]: > 100 µM (inactive)

COc1ccc(C(C)=O)cc1COC(=O)c1c(C)noc1C
IC50 [15]: 39.8 µM (not active)

Cc1nc(CNS(=O)(=O)c2ccc3ccccc3c2)cs1
IC50 [17]: > 47.1 µM (inactive) | IC50 [18]: 37.7 µM (active) | EC50 [19]: > 53 µM (inactive)

O=C(NC1CCCC1)c1cccnc1N1CCCCCC1
AC50 [20]: 35.5 µM (inconclusive) | IC50 [15]: > 93.1 µM (not active)

CCOC(=O)n1cc(-c2cnc(CNC(=O)C(C)(c3ccccc3)c3ccccc3)o2)c2ccccc21
EC50 [8]: > 79.4 µM (not active) | EC50 [9]: > 79.4 µM (not active) | EC50 [10]: > 79.4 µM (not active)

COc1ccccc1CNC(=O)c1cn(C)c2ccc(S(=O)(=O)N3CCCC3)cc2c1=O
IC50 [3]: 5.95 µM (active)

COc1ccccc1C1C(C(=O)c2ccccc2)=C(O)C(=O)N1CCO (stereo not drawn)
Ki [4]: 19.7 µM (inactive) | AC50 [6]: 0.794 µM (inconclusive) | AC50 [20]: 39.8 µM (inconclusive) | AC50 [7]: 39.8 µM (inconclusive)

O=C(O)c1ccc(NS(=O)(=O)c2ccc3c(c2)C(=O)c2cc(S(=O)(=O)Nc4ccc(C(=O)O)cc4)ccc2-3)cc1
IC50 [21]: 95.9 µM (active)

O=C(CN1CC(=O)Oc2ccccc21)OCC(=O)c1ccc(Br)cc1
IC50 [18]: 1.61 µM (active)

C=CCn1c(-c2ccc(S(=O)(=O)N3CCOCC3)cc2)cs/c1=N\c1ccccc1
AC50 [22]: 40 µM (active) | IC50 [18]: > 100 µM (active) | AC50 [23]: 1.52 µM (active) | AC50 [24]: 5.6 µM (active)

Cc1n[nH]c(=S)n(/N=C/c2ccccn2)c1=O
IC50 [18]: 6.08 µM (active)

Oc1[nH]c2ccccc2c1/C=N/c1ccc2c(c1)OCCO2
IC50 [15]: 89.9 µM (not active)

N#C/C(=C\c1cccc(Cl)c1)C(=O)c1ccccc1
IC50 [21]: 64.1 µM (active)

COc1ccc(/C=N\NS(=O)(=O)c2ccc(Cl)cc2)cc1COc1ccccc1[N+](=O)[O-]
IC50 [3]: > 50 µM (not active)
